Experimental data published in patent US20260198493A1, “HYDRAZIDE COMPOUND AND AGRICULTURAL/HORTICULTURAL FUNGICIDE” (Nippon Soda Co., Ltd., priority 2022, published 2026).

Key:
Botrytis cinerea [1] = assay: Control test of cucumber gray mold (sprayed young cucumber seedlings); type: in vivo; conditions: 96 h, four days after inoculation; for pest or weed control at 25 ppm: 25 ppm by mass spray; for pest or weed control at 125 ppm: 125 ppm by mass spray
Method: Then, the drug liquid was sprayed onto young cucumber seedlings cultivated in a nursery pot (variety “Jihai”-based, cotyledon stage), and then air-dried. […] They were left still in a moist room at 20° C. Four days after inoculation, leaves of the young cucumber seedlings were visually observed, and the control value was calculated from the lesion area ratio in accordance with the following equation. [formula]

Venturia inaequalis = assay: Control test of apple scab disease (sprayed young apple seedlings); type: in vivo; conditions: 125 ppm by mass spray, 12 to 14 days after inoculation
Method: [formula] […] Then, the drug liquid was sprayed onto young apple seedlings cultivated in a nursery pot (variety “Orin”, three-to four-leaf stage), and then air-dried. Thereafter, conidiospores of fungi causing apple scab disease (Venturia inaequalis) were inoculated thereon (treated area). As a control, the conidiospores were inoculated in a similar manner to the above on young apple seedlings unsprayed with the drug liquid (untreated area). They were left still at 20° C. in a moist room with light and dark cycles repeated every 12 hours. 12 Days to 14 days after inoculation, leaves of young apple seedlings were visually observed, and the control value was calculated from the lesion area ratio in accordance with the equation used in the control test of cucumber gray mold.

Botrytis cinerea [2] = type: cell-based; conditions: 120 h, 25 ppm by volume, Vogel medium, 20° C., five days, dark, read-out: growth inhibition ratio
Colletotrichum acutatum = assay: Fungicidal effect test against fungi causing apple anthracnose; conditions: 96 h, read-out: growth inhibition ratio
[3] = test system: Erysiphe graminis f.sp.tritici; assay: Control test of wheat powdery mildew disease (sprayed young wheat seedlings); type: in vivo; conditions: Blumeria graminis, 144 h, 125 ppm by mass spray, six days after inoculation
Text: [formula] […] Then, the drug liquid was sprayed onto young wheat seedlings cultivated in a nursery pot (variety “Chihoku”, one-to two-leaf stage), and then air-dried. Thereafter, conidiospores of fungi causing wheat powdery mildew disease (Erysiphe graminis f.sp.tritici) were sprinkled on the young wheat seedlings to inoculate them (treated area). As a control, the conidiospores of fungi causing wheat powdery mildew disease (Erysiphe graminis f.sp.tritici) were sprinkled on young wheat seedlings unsprayed with the drug liquid (untreated area). They were left still in a greenhouse at 20° C. Six days after inoculation, leaves of young wheat seedlings were visually observed, and the lesion area ratio was determined to calculate the control value in a similar manner to the previous test.

Glomerella cingulata = assay: Fungicidal effect test against fungi causing grape ripe rot disease; conditions: Colletotrichum gloeosporioides, 72 h, read-out: growth inhibition ratio

CC(=O)N(Cc1ccc(C)cc1C)NC(=O)c1cc(C)nnc1Oc1cccc(C2CC2)c1F [b-5, N′-acetyl-3-(3-cyclopropyl-2-fluorophenoxy)-N′-(2,4-dimethylbenzyl)-6-methylpyridazine-4-carbohydrazide]
≥ 75%: pest or weed control at 25 ppm (Botrytis cinerea [1]) | pest or weed control at 125 ppm (Botrytis cinerea [1]) | pest or weed control at 125 ppm (Venturia inaequalis) | inhibition of growth at 25 ppm (Botrytis cinerea [2]) | inhibition of growth at 25 ppm (Colletotrichum acutatum) | pest or weed control at 125 ppm [3] | inhibition of growth at 25 ppm (Glomerella cingulata)

CC(=O)N(Cc1ccc(C)cc1C)NC(=O)c1cc(C)ncc1Oc1cccc(C2CC2)c1F [b-9, N′-acetyl-5-(3-cyclopropyl-2-fluorophenoxy)-N′-(2,4-dimethylbenzyl)-2-methylisonicotinohydrazide]
≥ 75%: pest or weed control at 25 ppm (Botrytis cinerea [1]) | pest or weed control at 125 ppm (Botrytis cinerea [1]) | pest or weed control at 125 ppm (Venturia inaequalis) | inhibition of growth at 25 ppm (Botrytis cinerea [2]) | inhibition of growth at 25 ppm (Colletotrichum acutatum) | pest or weed control at 125 ppm [3] | inhibition of growth at 25 ppm (Glomerella cingulata)

Cc1ccc(CN(NC(=O)c2cc(C)nnc2Oc2cccc(C3CC3)c2F)C(=O)C(C)C)c(C)c1 [b-18]
≥ 75%: pest or weed control at 125 ppm (Botrytis cinerea [1]) | pest or weed control at 125 ppm (Venturia inaequalis) | inhibition of growth at 25 ppm (Botrytis cinerea [2]) | inhibition of growth at 25 ppm (Colletotrichum acutatum) | pest or weed control at 125 ppm [3] | inhibition of growth at 25 ppm (Glomerella cingulata)

CCCC(=O)N(Cc1ccc(C)cc1C)NC(=O)c1cc(C)nnc1Oc1cccc(C2CC2)c1F [b-20]
≥ 75%: pest or weed control at 125 ppm (Botrytis cinerea [1]) | pest or weed control at 125 ppm (Venturia inaequalis) | inhibition of growth at 25 ppm (Botrytis cinerea [2]) | inhibition of growth at 25 ppm (Colletotrichum acutatum) | pest or weed control at 125 ppm [3] | inhibition of growth at 25 ppm (Glomerella cingulata)

CCOC(=O)N(Cc1ccc(C)cc1C)NC(=O)c1cc(C)nnc1Oc1cccc(C2CC2)c1F [b-21]
≥ 75%: pest or weed control at 25 ppm (Botrytis cinerea [1]) | pest or weed control at 125 ppm (Botrytis cinerea [1]) | pest or weed control at 125 ppm (Venturia inaequalis) | inhibition of growth at 25 ppm (Botrytis cinerea [2]) | inhibition of growth at 25 ppm (Colletotrichum acutatum) | pest or weed control at 125 ppm [3] | inhibition of growth at 25 ppm (Glomerella cingulata)

Cc1ccc(CN(NC(=O)c2cc(C)nnc2Oc2cccc(C3CC3)c2F)C(=O)C2CC2)c(C)c1 [b-25]
≥ 75%: pest or weed control at 25 ppm (Botrytis cinerea [1]) | pest or weed control at 125 ppm (Botrytis cinerea [1]) | pest or weed control at 125 ppm (Venturia inaequalis) | inhibition of growth at 25 ppm (Botrytis cinerea [2]) | inhibition of growth at 25 ppm (Colletotrichum acutatum) | pest or weed control at 125 ppm [3] | inhibition of growth at 25 ppm (Glomerella cingulata)

COC(=O)N(Cc1ccc(C)c(C)c1)NC(=O)c1cc(C)nnc1Oc1cccc(C2CC2)c1F [b-29]
≥ 75%: pest or weed control at 25 ppm (Botrytis cinerea [1]) | pest or weed control at 125 ppm (Botrytis cinerea [1]) | pest or weed control at 125 ppm (Venturia inaequalis) | inhibition of growth at 25 ppm (Botrytis cinerea [2]) | inhibition of growth at 25 ppm (Colletotrichum acutatum) | pest or weed control at 125 ppm [3] | inhibition of growth at 25 ppm (Glomerella cingulata)

COCOc1ccc(CN(NC(=O)c2cc(C)nnc2Oc2cccc(C3CC3)c2F)C(=O)OC)c(C)c1 [b-30]
≥ 75%: pest or weed control at 25 ppm (Botrytis cinerea [1]) | pest or weed control at 125 ppm (Botrytis cinerea [1]) | pest or weed control at 125 ppm (Venturia inaequalis) | inhibition of growth at 25 ppm (Botrytis cinerea [2]) | inhibition of growth at 25 ppm (Colletotrichum acutatum) | pest or weed control at 125 ppm [3] | inhibition of growth at 25 ppm (Glomerella cingulata)

COC(=O)N(Cc1ccc(OC)cc1C)NC(=O)c1cc(C)nnc1Oc1cccc(C2CC2)c1F [b-44]
≥ 75%: pest or weed control at 25 ppm (Botrytis cinerea [1]) | pest or weed control at 125 ppm (Botrytis cinerea [1]) | pest or weed control at 125 ppm (Venturia inaequalis) | inhibition of growth at 25 ppm (Botrytis cinerea [2]) | inhibition of growth at 25 ppm (Colletotrichum acutatum) | pest or weed control at 125 ppm [3] | inhibition of growth at 25 ppm (Glomerella cingulata)

COC(=O)N(Cc1ccc(C)cc1C)NC(=O)c1cc(C)nnc1Oc1cccc(OC)c1F [b-52]
≥ 75%: pest or weed control at 25 ppm (Botrytis cinerea [1]) | pest or weed control at 125 ppm (Botrytis cinerea [1]) | pest or weed control at 125 ppm (Venturia inaequalis) | inhibition of growth at 25 ppm (Botrytis cinerea [2]) | inhibition of growth at 25 ppm (Colletotrichum acutatum) | pest or weed control at 125 ppm [3] | inhibition of growth at 25 ppm (Glomerella cingulata)

COC(=O)N(Cc1ccc(Cl)cc1Cl)NC(=O)c1cc(C)nnc1Oc1cccc(C2CC2)c1F [b-57]
≥ 75%: pest or weed control at 125 ppm (Botrytis cinerea [1]) | pest or weed control at 125 ppm (Venturia inaequalis) | inhibition of growth at 25 ppm (Botrytis cinerea [2]) | inhibition of growth at 25 ppm (Colletotrichum acutatum) | pest or weed control at 125 ppm [3] | inhibition of growth at 25 ppm (Glomerella cingulata)

CC(=S)N(Cc1ccc(C)cc1C)NC(=O)c1cc(C)nnc1Oc1cccc(C2CC2)c1F [b-66, 3-(3-Cyclopropyl-2-fluorophenoxy)-N′-(2,4-dimethylbenzyl)-N′-ethanethioyl-6-methylpyridazine-4-carbohydrazide]
≥ 75%: pest or weed control at 25 ppm (Botrytis cinerea [1]) | pest or weed control at 125 ppm (Botrytis cinerea [1]) | pest or weed control at 125 ppm (Venturia inaequalis) | inhibition of growth at 25 ppm (Botrytis cinerea [2]) | inhibition of growth at 25 ppm (Colletotrichum acutatum) | pest or weed control at 125 ppm [3] | inhibition of growth at 25 ppm (Glomerella cingulata)

COC(=O)N(Cc1ccc(C)cc1C)NC(=O)c1cc(C)nnc1Oc1cccc(Br)c1Cl [b-68]
≥ 75%: pest or weed control at 125 ppm (Botrytis cinerea [1]) | pest or weed control at 125 ppm (Venturia inaequalis) | inhibition of growth at 25 ppm (Botrytis cinerea [2]) | inhibition of growth at 25 ppm (Colletotrichum acutatum) | pest or weed control at 125 ppm [3] | inhibition of growth at 25 ppm (Glomerella cingulata)

COC(=O)N(Cc1ccc(C)cc1C)NC(=O)c1cc(Cl)nnc1Oc1ccc2c(c1)OCO2 [b-81]
≥ 75%: pest or weed control at 125 ppm (Botrytis cinerea [1]) | pest or weed control at 125 ppm (Venturia inaequalis) | inhibition of growth at 25 ppm (Botrytis cinerea [2]) | inhibition of growth at 25 ppm (Colletotrichum acutatum) | pest or weed control at 125 ppm [3] | inhibition of growth at 25 ppm (Glomerella cingulata)

COC(=O)N(Cc1ccc(OC)cc1OC)NC(=O)c1cc(C)nnc1Oc1cccc(C2CC2)c1F [b-83]
≥ 75%: pest or weed control at 125 ppm (Botrytis cinerea [1]) | pest or weed control at 125 ppm (Venturia inaequalis) | inhibition of growth at 25 ppm (Botrytis cinerea [2]) | inhibition of growth at 25 ppm (Colletotrichum acutatum) | pest or weed control at 125 ppm [3] | inhibition of growth at 25 ppm (Glomerella cingulata)

COC(=O)N(Cc1ccc(C)cc1C)NC(=O)c1c(Oc2cccc(Br)c2F)nnc2c1CCC2 [b-92, Methyl 2-(3-(3-bromo-2-fluorophenoxy)-6,7-dihydro-5H-cyclopenta[c]pyridazine-4-carbonyl)-1-(2,4-dimethylbenzyl)hydrazine-1-carboxylate]
≥ 75%: pest or weed control at 25 ppm (Botrytis cinerea [1]) | pest or weed control at 125 ppm (Botrytis cinerea [1]) | pest or weed control at 125 ppm (Venturia inaequalis) | inhibition of growth at 25 ppm (Botrytis cinerea [2]) | inhibition of growth at 25 ppm (Colletotrichum acutatum) | pest or weed control at 125 ppm [3] | inhibition of growth at 25 ppm (Glomerella cingulata)

COC(=O)N(Cc1ccc(C)cc1C)NC(=O)c1cc(C)nnc1Oc1cncc(Br)c1 [b-96]
≥ 75%: pest or weed control at 125 ppm (Botrytis cinerea [1]) | pest or weed control at 125 ppm (Venturia inaequalis) | inhibition of growth at 25 ppm (Botrytis cinerea [2]) | inhibition of growth at 25 ppm (Colletotrichum acutatum) | pest or weed control at 125 ppm [3] | inhibition of growth at 25 ppm (Glomerella cingulata)

COC(=O)N(Cc1ccc(C)cc1)NC(=O)c1cc(C)nnc1Oc1cccc(C2CC2)c1F [b-101]
≥ 75%: pest or weed control at 25 ppm (Botrytis cinerea [1]) | pest or weed control at 125 ppm (Botrytis cinerea [1]) | pest or weed control at 125 ppm (Venturia inaequalis) | inhibition of growth at 25 ppm (Botrytis cinerea [2]) | inhibition of growth at 25 ppm (Colletotrichum acutatum) | pest or weed control at 125 ppm [3] | inhibition of growth at 25 ppm (Glomerella cingulata)

COC(=O)N(Cc1ccccc1)NC(=O)c1cc(C)nnc1Oc1cccc(C2CC2)c1F [b-102]
≥ 75%: pest or weed control at 125 ppm (Venturia inaequalis) | inhibition of growth at 25 ppm (Botrytis cinerea [2]) | inhibition of growth at 25 ppm (Colletotrichum acutatum) | pest or weed control at 125 ppm [3] | inhibition of growth at 25 ppm (Glomerella cingulata)

COC(=O)N(Cc1ccccc1C)NC(=O)c1cc(C)nnc1Oc1cccc(C2CC2)c1F [b-103]
≥ 75%: pest or weed control at 25 ppm (Botrytis cinerea [1]) | pest or weed control at 125 ppm (Botrytis cinerea [1]) | pest or weed control at 125 ppm (Venturia inaequalis) | inhibition of growth at 25 ppm (Botrytis cinerea [2]) | inhibition of growth at 25 ppm (Colletotrichum acutatum) | pest or weed control at 125 ppm [3] | inhibition of growth at 25 ppm (Glomerella cingulata)

COC(=O)N(Cc1ccc(C(F)(F)F)cc1C)NC(=O)c1cc(C)nnc1Oc1cccc(C2CC2)c1F [b-109]
≥ 75%: pest or weed control at 25 ppm (Botrytis cinerea [1]) | pest or weed control at 125 ppm (Botrytis cinerea [1]) | pest or weed control at 125 ppm (Venturia inaequalis) | inhibition of growth at 25 ppm (Botrytis cinerea [2]) | inhibition of growth at 25 ppm (Colletotrichum acutatum) | pest or weed control at 125 ppm [3] | inhibition of growth at 25 ppm (Glomerella cingulata)

COC(=O)N(Cc1ccc2c(c1)OCO2)NC(=O)c1cc(C)nnc1Oc1cccc(C2CC2)c1F [b-110]
≥ 75%: pest or weed control at 125 ppm (Venturia inaequalis) | inhibition of growth at 25 ppm (Botrytis cinerea [2]) | inhibition of growth at 25 ppm (Colletotrichum acutatum) | pest or weed control at 125 ppm [3] | inhibition of growth at 25 ppm (Glomerella cingulata)

COC(=O)N(Cc1ccc(C)cc1C)NC(=O)c1cc(C)nnc1Oc1cccc(I)c1 [b-114]
≥ 75%: pest or weed control at 125 ppm (Botrytis cinerea [1]) | pest or weed control at 125 ppm (Venturia inaequalis) | inhibition of growth at 25 ppm (Botrytis cinerea [2]) | inhibition of growth at 25 ppm (Colletotrichum acutatum) | pest or weed control at 125 ppm [3] | inhibition of growth at 25 ppm (Glomerella cingulata)

COC(=O)N(Cc1ccc(C)cc1C)NC(=O)c1cc(C)nnc1Oc1cccc(OC)c1 [b-123]
≥ 75%: pest or weed control at 125 ppm (Venturia inaequalis) | inhibition of growth at 25 ppm (Botrytis cinerea [2]) | inhibition of growth at 25 ppm (Colletotrichum acutatum) | pest or weed control at 125 ppm [3] | inhibition of growth at 25 ppm (Glomerella cingulata)
